From ChEMBL document CHEMBL5241083, “Lysophosphatidic acid (LPA) receptor modulators: Structural features and recent development” (Eur J Med Chem, 2021)

Tested on: HEK-293T
Experiment: Antiproliferative activity against human HEK293T cells assessed as inhibition of cell growth
Format: functional, cell-based
Conditions: not given

SMILES | IC50
CCCCCCCC/C=C/CCCCCCCC(=O)N[C@H](COP(=O)(O)O)Cc1ccc(OCc2ccccc2)cc1 | 130 nM

Target: T1, Lysophosphatidic acid receptor 1 (Homo sapiens, UniProt Q92633)
Experiment: Antagonist activity at LPA1 receptor (unknown origin) assessed as inhibition constant
Conditions: not given

T1 sequence (Q92633 whole entry): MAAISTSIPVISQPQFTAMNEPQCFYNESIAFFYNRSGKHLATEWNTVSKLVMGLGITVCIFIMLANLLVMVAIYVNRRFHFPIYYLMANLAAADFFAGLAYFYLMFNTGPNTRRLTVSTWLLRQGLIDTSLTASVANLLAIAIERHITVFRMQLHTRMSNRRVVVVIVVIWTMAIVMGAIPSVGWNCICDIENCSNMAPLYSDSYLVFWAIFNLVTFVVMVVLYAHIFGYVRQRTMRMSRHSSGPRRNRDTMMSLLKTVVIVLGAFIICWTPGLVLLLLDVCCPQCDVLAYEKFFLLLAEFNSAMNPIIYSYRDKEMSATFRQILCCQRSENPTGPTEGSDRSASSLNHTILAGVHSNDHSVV

SMILES | Ki
CC1=C(NC(=O)OC(C)c2ccccc2Cl)C(c2ccc(CSCCC(=O)O)cc2)ON1 (stereo not given) | 6420 nM

Target: T1, Lysophosphatidic acid receptor 1
Experiment: Antagonist activity at human LPA1 receptor expressed in CHO cells
Format: cell-based
Conditions: not given

SMILES | EC50
CC(OC(=O)Nc1c(-c2ccc(-c3ccc(C4(C(=O)O)CC4)cc3)cc2)oc2cnccc12)c1ccccc1 (stereo not given) | < 50 nM
CC(OC(=O)Nc1c(-c2ccc(-c3ccc(C4(C(=O)O)CC4)cc3)cc2)oc2cnccc12)c1ccccc1Cl (stereo not given) | < 50 nM
Cc1noc(-c2ccc(-c3ccc(CC(=O)O)c4c3CCC4)cc2)c1NC(=O)OC(C)c1ccccc1Cl (stereo not given) | < 50 nM

Target: T2, Lysophosphatidic acid receptor 3 (Homo sapiens, UniProt Q9UBY5)
T2 sequence (Q9UBY5 whole entry): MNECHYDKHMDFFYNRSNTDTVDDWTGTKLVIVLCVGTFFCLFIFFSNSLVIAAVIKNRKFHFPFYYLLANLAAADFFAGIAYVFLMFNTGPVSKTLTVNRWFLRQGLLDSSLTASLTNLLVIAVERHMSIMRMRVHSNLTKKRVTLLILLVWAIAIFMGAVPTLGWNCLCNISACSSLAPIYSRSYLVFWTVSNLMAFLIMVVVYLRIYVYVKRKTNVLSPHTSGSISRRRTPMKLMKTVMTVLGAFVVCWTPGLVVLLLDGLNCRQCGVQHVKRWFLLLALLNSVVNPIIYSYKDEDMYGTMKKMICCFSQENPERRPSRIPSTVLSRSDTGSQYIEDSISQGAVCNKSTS
Experiment: Antagonist activity at human LPA3 receptor
Format: cell-based, CHO
Conditions: not given

SMILES | EC50
CC(OC(=O)Nc1c(-c2ccc(-c3ccc(C4(C(=O)O)CC4)cc3)cc2)oc2cnccc12)c1ccccc1 (stereo not given) | < 50 nM
CC(OC(=O)Nc1c(-c2ccc(-c3ccc(C4(C(=O)O)CC4)cc3)cc2)oc2cnccc12)c1ccccc1Cl (stereo not given) | < 50 nM
Cc1noc(-c2ccc(-c3ccc(CC(=O)O)c4c3CCC4)cc2)c1NC(=O)OC(C)c1ccccc1Cl (stereo not given) | < 50 nM

Target: T3, Lysophosphatidic acid receptor 5 (Homo sapiens, UniProt Q9H1C0)
Experiment: Antagonist activity at human LPA5 receptor expressed in CHO cells assessed as inhibition of LPA stimulated calcium release incubated for 20 mins followed by […] and measured for 90 seconds
Format: cell-based
Conditions: not given

T3 sequence (Q9H1C0 whole entry): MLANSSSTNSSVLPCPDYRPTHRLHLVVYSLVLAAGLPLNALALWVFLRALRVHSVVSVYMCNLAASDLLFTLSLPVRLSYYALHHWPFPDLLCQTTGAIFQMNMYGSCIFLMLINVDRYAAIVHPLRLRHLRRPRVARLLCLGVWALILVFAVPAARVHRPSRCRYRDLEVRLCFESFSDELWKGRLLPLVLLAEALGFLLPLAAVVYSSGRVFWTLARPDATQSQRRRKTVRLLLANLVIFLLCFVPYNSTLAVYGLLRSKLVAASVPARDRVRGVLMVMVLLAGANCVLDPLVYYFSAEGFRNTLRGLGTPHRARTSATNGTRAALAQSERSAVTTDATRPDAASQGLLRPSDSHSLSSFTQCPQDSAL

SMILES | IC50
Cc1c(COC(C)(C)C(=O)NCc2ccc(C(=O)O)cc2)nn(-c2ccc(Cl)cc2Cl)c1-c1ccc(Cl)cc1 | 2900 nM

Target: T3, Lysophosphatidic acid receptor 5
Experiment: Antagonist activity at human LPA5 receptor by FLIPR analysis
Conditions: not given

SMILES | IC50
Cc1c(COC(C)(C)C(=O)NCc2ccc(C(=O)O)cc2)nn(-c2ccc(Cl)cc2Cl)c1-c1ccc(Cl)cc1 | 1300 nM
Cc1c(COC(C)(C)C(=O)NCc2ccc(C(=O)O)cc2)nn(-c2ccc(Cl)cc2Cl)c1-c1ccc(C(F)(F)F)cc1 | 30 nM
Cc1c(COC(C)(C)C(=O)NCc2ccc(C(=O)O)cc2)nn(-c2ccccc2Cl)c1-c1ccc(C(F)(F)F)cc1 | 1300 nM

Target: T1, Lysophosphatidic acid receptor 1
Experiment: Antagonist activity at human LPA1 receptor
Conditions: not given

SMILES | IC50
COc1ccc(C(=O)NC2(C(=O)O)CCCCCC2)cc1OCCc1cc(Cl)ccc1F | 100 nM
COc1ccc(C(=O)NC2(C(=O)O)CC3CCC(C3)C2)cc1OCCc1cccc(C)c1 (stereo not given) | 100 nM
CSc1ccc(C(=O)NC2(C(=O)O)Cc3ccccc3C2)cc1OCCc1cccc(C)c1 | 100 nM
COc1ccc(C(=O)NC2(C(=O)O)CCCCCC2)cc1OCCc1cccc(Cl)c1 | 100 nM
COc1cc(C(=O)N(CCCc2ccccc2)Cc2ccc(Oc3ccccc3C(=O)O)cc2)cc(OC)c1OC | 110 nM
CCC1CC1(NC(=O)c1ccc(OC)c(OCCc2cccc(C)c2)c1)C(=O)O (stereo not given) | 100 nM
COc1ccc(C(=O)NC2(C(=O)O)CCC(C)C2)cc1OCCc1cccc(C)c1 (stereo not given) | 100 nM

Target: T4, Lysophosphatidic acid receptor 2 (Homo sapiens, UniProt Q9HBW0)
Experiment: Inhibition of LPA2 receptor (unknown origin)
Conditions: not given

T4 sequence (Q9HBW0 whole entry): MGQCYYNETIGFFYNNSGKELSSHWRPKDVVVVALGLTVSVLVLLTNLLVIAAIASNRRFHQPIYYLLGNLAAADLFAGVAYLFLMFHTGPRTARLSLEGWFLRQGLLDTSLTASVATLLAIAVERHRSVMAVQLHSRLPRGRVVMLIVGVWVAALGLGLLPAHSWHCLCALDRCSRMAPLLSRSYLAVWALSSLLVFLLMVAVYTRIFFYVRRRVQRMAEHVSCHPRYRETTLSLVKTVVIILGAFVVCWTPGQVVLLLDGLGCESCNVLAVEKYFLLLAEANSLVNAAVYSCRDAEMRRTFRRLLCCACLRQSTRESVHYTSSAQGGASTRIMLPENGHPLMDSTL

SMILES | IC50
O=C(Nc1nc2cc(C(F)(F)F)ccc2[nH]1)C1CC1c1ccccc1 (stereo not given) | 10 nM
O=C(Nc1nc2ccccc2[nH]1)C1CC1c1ccccc1 (stereo not given) | < 10 nM
Cc1cccc(C2CC2C(=O)Nc2nc3ccccc3[nH]2)c1 (stereo not given) | 10 nM
O=C(Nc1nc2cc(Cl)ccc2[nH]1)C1CC1c1ccccc1 (stereo not given) | 10 nM
O=C(Nc1nc2ccccc2[nH]1)C1CC1c1ccccc1Cl (stereo not given) | 10 nM

Target: T4, Lysophosphatidic acid receptor 2
Experiment: Antagonist activity at LPA2 receptor (unknown origin)
Conditions: not given

SMILES | IC50
Cc1cccc(CN2C(C)CCCC2c2cc3cc(F)ccc3[nH]2)c1 (stereo not given) | < 500 nM
Fc1ccc(CN2CCCCC2c2cc3ccccc3[nH]2)cc1 (stereo not given) | < 500 nM
Cc1cccc(CN2CCCCC2c2cc3ccccc3[nH]2)c1 (stereo not given) | < 500 nM

Target: T3, Lysophosphatidic acid receptor 5
Experiment: Antagonist activity at human LPA5 receptor assessed as inhibition of […] cAMP accumulation incubated for 20 mins
Conditions: not given

SMILES | IC50
COc1cc2c(C(=O)N3CCCCC3)cn(-c3noc4ccc(C)cc34)c(=O)c2cc1OC | 38 nM

Same assay, conditions: filed as antagonist

SMILES | IC50
CCN1CCCc2ccc(-n3cc(C(=O)N4CCCCC4)c4cc(OC)c(OC)cc4c3=O)cc21 | 38 nM

Target: T4, Lysophosphatidic acid receptor 2
Experiment: Antagonist activity at human LPA2 receptor assessed as inhibition of LPA-induced calcium release
Conditions: not given

SMILES | IC50
O=C1CC(O)(C(F)(F)F)c2c(-c3cccc(C(F)(F)F)c3)n[nH]c2N1 (stereo not given) | < 1000 nM
O=C1CC(O)(C(F)(F)F)c2c(-c3cccc(Cl)c3)n[nH]c2N1 (stereo not given) | < 1000 nM
O=C1CC(O)(C(F)(F)F)c2c(-c3ccncc3)n[nH]c2N1 (stereo not given) | < 1000 nM
Cc1ccc(-c2n[nH]c3c2C(O)(C(F)(F)F)CC(=O)N3)cc1 (stereo not given) | < 1000 nM
COc1cccc(-c2n[nH]c3c2C(O)(C(F)(F)F)CC(=O)N3)c1 (stereo not given) | < 1000 nM
O=C1CC(O)(C(F)(F)F)c2c(-c3cccs3)n[nH]c2N1 (stereo not given) | < 1000 nM
O=C1CC(O)(C(F)(F)F)c2c(-c3cccc(F)c3)n[nH]c2N1 (stereo not given) | < 1000 nM
COc1ccc(-c2n[nH]c3c2C(O)(C(F)(F)F)CC(=O)N3)cc1 (stereo not given) | < 1000 nM
O=C1CC(O)(C(F)(F)F)c2c(-c3ccccc3)n[nH]c2N1 (stereo not given) | < 1000 nM
O=C1CC(O)(C(F)(F)F)c2c(-c3cccc(Br)c3)n[nH]c2N1 (stereo not given) | < 1000 nM
O=C1CC(O)(C(F)(F)F)c2c(-c3ccc(F)cc3)n[nH]c2N1 (stereo not given) | < 1000 nM
